According to paper PMC9161374 (Science Translational Medicine, 2022):

Legend:
Assay type in all cases: cell-based
[1] = system: SARS-CoV-2 replicon system (pBAC-SARS-CoV-2-Replicon-Luc); assay: microbe, parasite or virus in culture
[2] = system: SARS-CoV-2 (B.1); assay: Anti-SARS-CoV-2 activity in Vero E6 cells (viral yield by qRT-PCR)
[3] = system: SARS-CoV-2 (Beta, B.1.351); assay: microbe, parasite or virus in culture; conditions: for % Inhibition: beta
[4] = system: SARS-CoV-2 (Delta, B.1.617.2); assay: microbe, parasite or virus in culture

CC(C)C(=O)OC[C@H]1O[C@@](C#N)(c2ccc3c(N)ncnn23)[C@H](O)[C@@H]1O [ATV006] was tested, and the “activity in the replicon system in comparison with parent GS-441524” value [1] was “improved the inhibitory activities”, the EC50 ([1]; Severe acute respiratory syndrome coronavirus 2, HEK-293T, 60 h, read-out: EC50 (Confidence 95%), replicon) was 521 nM and the EC90 ([1]; Severe acute respiratory syndrome coronavirus 2, HEK-293T, 60 h, read-out: EC90 (Confidence 95%), replicon) was 3.23 µM. The “% Inhibition” value ([2]; 1 μM, replicates, sheet Fig.S3) was 3.722%, the “% Inhibition” value ([2]; 2 μM, replicates, sheet Fig.S3) was 87.0049% and the “% Inhibition” value ([2]; 5 μM, replicates, sheet Fig.S3) was 91.6411%. The “% Inhibition” value ([2]; 10 μM, replicates, sheet Fig.S3) was 90.9393%, the “% Inhibition” value ([2]; B.1, 1 uM, Vero E6, replicates, 1 µM) was 3.249% and the “% Inhibition” value ([2]; B.1, 2 uM, Vero E6, replicates, 2 µM) was 99.386%. For the same compound, the “% Inhibition” value ([2]; B.1, 5 uM, Vero E6, replicates, 5 µM) was 99.8149%, the “% Inhibition” value ([2]; B.1, 10 uM, Vero E6, replicates, 10 µM) was 99.9851% and the “% Inhibition” value ([2]; B.1, 50 uM, Vero E6, replicates, 50 µM) was 99.991%. It also gave an inhibition at 0.1 µM ([2]; Severe acute respiratory syndrome coronavirus 2, Vero C1008, 0.1 μM, replicates, sheet Fig.S3) of 0%, an inhibition at 0.5 µM ([2]; Severe acute respiratory syndrome coronavirus 2, Vero C1008, 0.5 μM, replicates, sheet Fig.S3) of 0% and an inhibition at 2 µM ([2]; Severe acute respiratory syndrome coronavirus 2, Vero C1008, 2 μM, replicates, sheet Fig.S3) of 87.7%. For the same compound, the inhibition at 5 µM ([2]; Severe acute respiratory syndrome coronavirus 2, Vero C1008, 5 μM, replicates, sheet Fig.S3) was 93.3%, the inhibition at 10 µM ([2]; Severe acute respiratory syndrome coronavirus 2, Vero C1008, 10 μM, replicates, sheet Fig.S3) was 93.2% and the inhibition at 0.01 µM ([2]; Severe acute respiratory syndrome coronavirus 2, Vero C1008, B.1, 0.01 uM, Vero E6, replicates) was 0%. The inhibition at 0.1 µM ([2]; Severe acute respiratory syndrome coronavirus 2, Vero C1008, B.1, 0.1 uM, Vero E6, replicates) was 0%, the inhibition at 0.25 µM ([2]; Severe acute respiratory syndrome coronavirus 2, Vero C1008, B.1, 0.25 uM, Vero E6, replicates) was 0% and the inhibition at 0.5 µM ([2]; Severe acute respiratory syndrome coronavirus 2, Vero C1008, B.1, 0.5 uM, Vero E6, replicates) was 0%. For the same compound, the inhibition at 1 µM ([2]; Severe acute respiratory syndrome coronavirus 2, Vero C1008, B.1, 1 uM, Vero E6, replicates) was 3.85%, the inhibition at 2 µM ([2]; Severe acute respiratory syndrome coronavirus 2, Vero C1008, B.1, 2 uM, Vero E6, replicates) was 97.4% and the inhibition at 5 µM ([2]; Severe acute respiratory syndrome coronavirus 2, Vero C1008, B.1, 5 uM, Vero E6, replicates) was 99.8%. The inhibition at 10 µM ([2]; Severe acute respiratory syndrome coronavirus 2, Vero C1008, B.1, 10 uM, Vero E6, replicates) was 99.9%, the inhibition at 50 µM ([2]; Severe acute respiratory syndrome coronavirus 2, Vero C1008, B.1, 50 uM, Vero E6, replicates) was 100% and the EC90 ([2]; Severe acute respiratory syndrome coronavirus 2, Vero C1008, read-out: EC90 (Confidence 95%)) was 2180 nM. It also gave an EC50 ([2]; Severe acute respiratory syndrome coronavirus 2, Vero C1008, MOI 0.05, 48 h) of 1360 nM, an EC50 ([3]; Severe acute respiratory syndrome coronavirus 2, Vero C1008, 48 h, read-out: EC50 in Vero E6 cells, SARS-CoV-2 (Beta, B.1.351)) of 1130 nM and an inhibition at 0.01 µM ([3]; Severe acute respiratory syndrome coronavirus 2, Vero C1008, beta, 0.01 uM, Vero E6, replicates) of 0%. The inhibition at 0.1 µM ([3]; Severe acute respiratory syndrome coronavirus 2, Vero C1008, beta, 0.1 uM, Vero E6, replicates) was 0%, the inhibition at 0.25 µM ([3]; Severe acute respiratory syndrome coronavirus 2, Vero C1008, beta, 0.25 uM, Vero E6, replicates) was 0% and the inhibition at 0.5 µM ([3]; Severe acute respiratory syndrome coronavirus 2, Vero C1008, beta, 0.5 uM, Vero E6, replicates) was 0%. It also gave an inhibition at 1 µM ([3]; Severe acute respiratory syndrome coronavirus 2, Vero C1008, beta, 1 uM, Vero E6, replicates) of 32.1%, an inhibition at 2 µM ([3]; Severe acute respiratory syndrome coronavirus 2, Vero C1008, beta, 2 uM, Vero E6, replicates) of 99.6% and an inhibition at 5 µM ([3]; Severe acute respiratory syndrome coronavirus 2, Vero C1008, beta, 5 uM, Vero E6, replicates) of 99.7%. It also gave an inhibition at 10 µM ([3]; Severe acute respiratory syndrome coronavirus 2, Vero C1008, beta, 10 uM, Vero E6, replicates) of 99.9%, an inhibition at 50 µM ([3]; Severe acute respiratory syndrome coronavirus 2, Vero C1008, beta, 50 uM, Vero E6, replicates) of 99.9% and an EC90 ([3]; Severe acute respiratory syndrome coronavirus 2, Vero C1008, read-out: EC90 (Confidence 95%), Vero-E6, Beta B.1.351) of 1360 nM. For the same compound, the “% Inhibition” value ([3]; 1 uM, Vero E6, replicates) was 16.537%, the “% Inhibition” value ([3]; 2 uM, Vero E6, replicates) was 99.486% and the “% Inhibition” value ([3]; 5 uM, Vero E6, replicates) was 99.5312%. For the same compound, the “% Inhibition” value ([3]; 10 uM, Vero E6, replicates) was 99.9431%, the “% Inhibition” value ([3]; 50 uM, Vero E6, replicates) was 99.9484% and the EC50 ([4]; Severe acute respiratory syndrome coronavirus 2, Vero C1008, 48 h, read-out: EC50 in Vero E6 cells, SARS-CoV-2 (Delta, B.1.617.2)) was 349 nM. For the same compound, the inhibition at 0.01 µM ([4]; Severe acute respiratory syndrome coronavirus 2, Vero C1008, delta, 0.01 uM, Vero E6, replicates) was 0%, the inhibition at 0.1 µM ([4]; Severe acute respiratory syndrome coronavirus 2, Vero C1008, delta, 0.1 uM, Vero E6, replicates) was 0% and the inhibition at 0.25 µM ([4]; Severe acute respiratory syndrome coronavirus 2, Vero C1008, delta, 0.25 uM, Vero E6, replicates) was 13.4%. The inhibition at 0.5 µM ([4]; Severe acute respiratory syndrome coronavirus 2, Vero C1008, delta, 0.5 uM, Vero E6, replicates) was 86.8%.
